Biological target: Carbonic anhydrase 2 (Homo sapiens, UniProt P00918)
Description: Inhibition of human carbonic anhydrase 2-catalyzed CO2 hydration by stopped flow technique

Ki: 702 nM
SMILES: NS(=O)(=O)c1ccc(/N=C/c2ccc(O)cc2)cc1

From ChEMBL document CHEMBL1154193, “Carbonic anhydrase II-induced selection of inhibitors from a dynamic combinatorial library of Schiff's bases” (Bioorg Med Chem Lett, 2009)
